Experimental data taken from publication PMC8854719, “Phase 1A/1B dose-escalation and -expansion study to evaluate the safety, pharmacokinetics, food effects and antitumor activity of pamiparib in advanced solid tumours” (British Journal of Cancer, 2021).
Like-named read-outs stand apart in the source and are kept apart here.

Experiment: Plasma pharmacokinetics of pamiparib (LC-MS/MS, non-compartmental)
Parameters: species or system human
Settings: in vivo; for AUC(0-inf): AUC0-inf; for Vd/F: Vz/F
Experimental: Patients in the dose-escalation phase received a single oral dose of pamiparib on day 1 of cycle 1 to collect samples for single-dose PK assessment over 48 h, followed by continuous daily doses (BID and QD) starting on day 3 of cycle 1 as a 21-day period of repeated drug administration (days 3–23), and then continued every 21-day cycle thereafter until disease progression, toxicity, or patient withdrawal. Eight BID dose levels (2.5, 5, 10, 20, 40, 60, 80, 120 mg) were administered (Fig. 1). After completion of BID dose-escalation, alternative dosing regimens of 120 and 160 mg QD were selected for exploration based on the total daily dose equivalent to the RP2D (60 mg BID) and MTD (80 mg BID), respectively. The QD dosing regimen was added as an amendment to the protocol with the purpose of exploring the feasibility of a more convenient regimen. During the dose-expansion phase, patients received pamiparib 60 mg BID (RP2D from BID dose-escalation phase) continuously from day 1 of cycle 1.
Pamiparib in plasma was measured using a validated liquid chromatography-tandem–mass spectrometry assay with a lower limit of quantification of 1.0 ng/mL. The collection schedule for blood samples used to assess the PK profile is presented in the Supplemental Appendix. Summary PK parameters, including area under the concentration-time curve from time 0 to 9 h (AUC0-9) or infinity (AUC0-inf), maximal plasma concentration (Cmax) and time to maximal plasma concentration (Tmax), were estimated. The pharmacodynamic (PD) activity of pamiparib was explored through the evaluation of poly(ADP-ribose [PAR]) formation in peripheral blood mononuclear cells (PBMCs) after pamiparib administration. The schedule for blood sample collection (PK and PBMCs) and additional assessment information for PAR levels in PBMCs and pharmacodynamic activity is presented in the Supplemental Appendix. Antitumor activity was assessed by radiographic imaging (computed tomography or magnetic resonance imaging) during screening, within 28 days of first pamiparib dose, every 6 weeks in the first 12 months and every 9 weeks thereafter.
Descriptive statistics were used to summarise all study data (see Supplemental Appendix). Progression-free survival (PFS) and event-free rates were estimated using the Kaplan–Meier method along with the corresponding 95% CI. Pharmacokinetic parameters were derived using standard non-compartmental methods with Phoenix WinNonlin Version 6.4 or higher (Pharsight Corp., Mountain View, California).
The PK profile of pamiparib was assessed based on blood samples collected at predose and 0.5, 1, 2, 4, 6, 9, 24, and 48 hours postdose on Days 1-3 and then at predose and 0.5, 1, 2, 4, 6, and 9 hours postdose on Day 17 of Cycle 1 in Phase 1A. Sparse PK samples were collected in phase 1B Part A. The food effect on the PK of pamiparib was assessed based on blood samples collected at predose and 0.5, 1, 2, 4, 7, 24, and 48 hours postdose on Day 1 and Day 6 of Cycle 1 in phase 1B Part B.

[1] = human, 2.5 mg, Single Dose (Cycle 1 Day 1)
[2] = human, 5 mg, Single Dose (Cycle 1 Day 1)
[3] = human, 10 mg, Single Dose (Cycle 1 Day 1)
[4] = human, 20 mg, Single Dose (Cycle 1 Day 1)
[5] = human, 40 mg, Single Dose (Cycle 1 Day 1)
[6] = human, 60 mg, Single Dose (Cycle 1 Day 1)
[7] = human, 80 mg, Single Dose (Cycle 1 Day 1)
[8] = human, 120 mg, Single Dose (Cycle 1 Day 1)
[9] = human, 160 mg, Single Dose (Cycle 1 Day 1)

Structure (SMILES): C[C@]12CCCN1CC1=NNC(=O)c3cc(F)cc4[nH]c2c1c34 [pamiparib]
- Dose proportionality, AUC0-inf (h*ng/mL): Intercept (95% CI) (human): 5.97 (5.36-6.57)
- Dose proportionality, AUC0-inf (h*ng/mL): Slope (95% CI) (human): 1.04 (0.88-1.20)
- Dose proportionality, Cmax (ng/mL): Intercept (95% CI) (human): 3.66 (3.34-3.99)
- Dose proportionality, Cmax (ng/mL): Slope (95% CI) (human): 0.96 (0.87-1.04)
- Accumulation Ratio, AUC0-9 (human, 2.5 mg): 2.42
- Accumulation Ratio, Cmax (human, 2.5 mg): 2.44
- CL/F, Single Dose (Cycle 1 Day 1) (human, 2.5 mg): 4265.3 (34.8) mL/hr
- t1/2, Single Dose (Cycle 1 Day 1) (human, 2.5 mg): 12.03 (7.08, 33.87) hr
- AUC(0-t) (human, 2.5 mg, AUC0-9, Single Dose (Cycle 1 Day 1)): 385 ng·h/mL
- AUC(0-t) (human, 2.5 mg, AUC0-9, Steady State (Cycle 1 Day 17)): 931 ng·h/mL
- AUC(0-inf) [1]: 586 ng·h/mL
- Cmax [1]: 74.5 ng/mL
- Cmax (human, 2.5 mg, Steady State (Cycle 1 Day 17)): 182 ng/mL
- Vd/F [1]: 52.4 L
- Accumulation Ratio, AUC0-9 (human, 5 mg): 1.93
- Accumulation Ratio, Cmax (human, 5 mg): 2.09
- CL/F, Single Dose (Cycle 1 Day 1) (human, 5 mg): 2056.9 (49.5) mL/hr
- AUC(0-t) (human, 5 mg, AUC0-9, Single Dose (Cycle 1 Day 1)): 1100 ng·h/mL
- AUC(0-t) (human, 5 mg, AUC0-9, Steady State (Cycle 1 Day 17)): 2120 ng·h/mL
- AUC(0-inf) [2]: 2430 ng·h/mL
- Cmax [2]: 193 ng/mL
- Cmax (human, 5 mg, Steady State (Cycle 1 Day 17)): 404 ng/mL
- Tmax (human, 5 mg, Tmax, Steady State (Cycle 1 Day 17)): 0.53 h
- Vd/F [2]: 32.7 L
- half-life (human, 5 mg, t1/2, Single Dose (Cycle 1 Day 1)): 11 h
- Accumulation Ratio, AUC0-9 (human, 10 mg): 1.68
- Accumulation Ratio, Cmax (human, 10 mg): 1.59
- CL/F, Single Dose (Cycle 1 Day 1) (human, 10 mg): 1359.2 (35.9) mL/hr
- AUC(0-t) (human, 10 mg, AUC0-9, Single Dose (Cycle 1 Day 1)): 2580 ng·h/mL
- AUC(0-t) (human, 10 mg, AUC0-9, Steady State (Cycle 1 Day 17)): 4330 ng·h/mL
- AUC(0-inf) [3]: 7360 ng·h/mL
- Cmax [3]: 412 ng/mL
- Cmax (human, 10 mg, Steady State (Cycle 1 Day 17)): 657 ng/mL
- Tmax (human, 10 mg, Tmax, Steady State (Cycle 1 Day 17)): 1.05 h
- Vd/F [3]: 27.6 L
- half-life (human, 10 mg, t1/2, Single Dose (Cycle 1 Day 1)): 14.1 h
- AUC0-9, Single Dose (Cycle 1 Day 1) (human, 20 mg): 4134.9 (29.9) ng/ml*hr
- Accumulation Ratio, AUC0-9 (human, 20 mg): 1.82
- Accumulation Ratio, Cmax (human, 20 mg): 1.62
- CL/F, Single Dose (Cycle 1 Day 1) (human, 20 mg): 2550.4 (58.7) mL/hr
- Cmax, Steady State (Cycle 1 Day 17) (human, 20 mg): 1267.6 (19.9) ng/ml
- AUC(0-t) (human, 20 mg, AUC0-9, Steady State (Cycle 1 Day 17)): 7510 ng·h/mL
- AUC(0-inf) [4]: 7840 ng·h/mL
- Cmax [4]: 783 ng/mL
- Tmax (human, 20 mg, Tmax, Single Dose (Cycle 1 Day 1)): 0.53 h
- Vd/F [4]: 31.4 L
- half-life (human, 20 mg, t1/2, Single Dose (Cycle 1 Day 1)): 8.53 h
- Accumulation Ratio, AUC0-9 (human, 40 mg): 1.86
- Accumulation Ratio, Cmax (human, 40 mg): 1.60
- CL/F, Single Dose (Cycle 1 Day 1) (human, 40 mg): 1826.6 (85.8) mL/hr
- t1/2, Single Dose (Cycle 1 Day 1) (human, 40 mg): 11.76 (6.24, 24.37) hr
- AUC(0-t) (human, 40 mg, AUC0-9, Single Dose (Cycle 1 Day 1)): 8950 ng·h/mL
- AUC(0-t) (human, 40 mg, AUC0-9, Steady State (Cycle 1 Day 17)): 18300 ng·h/mL
- AUC(0-inf) [5]: 21900 ng·h/mL
- Cmax [5]: 1750 ng/mL
- Cmax (human, 40 mg, Steady State (Cycle 1 Day 17)): 2940 ng/mL
- Tmax (human, 40 mg, Tmax, Steady State (Cycle 1 Day 17)): 1.5 h
- Vd/F [5]: 31 L
- AUC0-9, Single Dose (Cycle 1 Day 1) (human, 60 mg): 10403.7 (29.2) ng/ml*hr
- CL/F, Single Dose (Cycle 1 Day 1) (human, 60 mg): 1874.7 (55.4) mL/hr
- Geometric mean half-life (human, 60 mg): 13.5 h
- t1/2, Single Dose (Cycle 1 Day 1) (human, 60 mg): 13.50 (7.14, 24.61) hr
- AUC(0-t) (human, 60 mg, AUC0-9, Steady State (Cycle 1 Day 17)): 25200 ng·h/mL
- AUC(0-inf) [6]: 32000 ng·h/mL
- Cmax [6]: 1880 ng/mL
- Cmax (human, 60 mg, Steady State (Cycle 1 Day 17)): 3830 ng/mL
- Vd/F [6]: 36.5 L
- Accumulation Ratio, AUC0-9 (human, 80 mg): 2.07
- Accumulation Ratio, Cmax (human, 80 mg): 1.96
- CL/F, Single Dose (Cycle 1 Day 1) (human, 80 mg): 2786.6 (56.0) mL/hr
- Cmax, Single Dose (Cycle 1 Day 1) (human, 80 mg): 2317.8 (43.0) ng/ml
- AUC(0-t) (human, 80 mg, AUC0-9, Single Dose (Cycle 1 Day 1)): 13200 ng·h/mL
- AUC(0-t) (human, 80 mg, AUC0-9, Steady State (Cycle 1 Day 17)): 25300 ng·h/mL
- AUC(0-inf) [7]: 28700 ng·h/mL
- Cmax (human, 80 mg, Steady State (Cycle 1 Day 17)): 4350 ng/mL
- Tmax (human, 80 mg, Tmax, Single Dose (Cycle 1 Day 1)): 1.98 h
- Tmax (human, 80 mg, Tmax, Steady State (Cycle 1 Day 17)): 1.08 h
- Vd/F [7]: 38.5 L
- half-life (human, 80 mg, t1/2, Single Dose (Cycle 1 Day 1)): 9.58 h
- AUC0-9, Steady State (Cycle 1 Day 17) (human, 120 mg): 36558.4 (32.4) ng/ml*hr
- AUC0-inf, Single Dose (Cycle 1 Day 1) (human, 120 mg): 68952.9 (43.3) ng/ml*hr
- Cmax, Single Dose (Cycle 1 Day 1) (human, 120 mg): 3752.8 (41.1) ng/ml
- Cmax, Steady State (Cycle 1 Day 17) (human, 120 mg): 6059.1 (27.7) ng/ml
- Vz/F, Single Dose (Cycle 1 Day 1) (human, 120 mg): 31373.9 (13.9) mL
- t1/2, Single Dose (Cycle 1 Day 1) (human, 120 mg): 14.29 (9.83, 30.30) hr
- AUC(0-t) (human, 120 mg, AUC0-9, Single Dose (Cycle 1 Day 1)): 21100 ng·h/mL
- AUC(0-t) (human, 120 mg, AUC0-9, Steady State (Cycle 1 Day 17)): 26900 ng·h/mL
- AUC(0-inf) [8]: 52000 ng·h/mL
- Cmax [8]: 3590 ng/mL
- Cmax (human, 120 mg, Steady State (Cycle 1 Day 17)): 4530 ng/mL
- Tmax (human, 120 mg, Tmax, Single Dose (Cycle 1 Day 1)): 1.95 h
- Vd/F [8]: 36.3 L
- half-life (human, 120 mg, t1/2, Single Dose (Cycle 1 Day 1)): 10.9 h
- Accumulation Ratio, AUC0-9 (human, 160 mg): 1.47
- Accumulation Ratio, Cmax (human, 160 mg): 1.27
- CL/F, Single Dose (Cycle 1 Day 1) (human, 160 mg): 1569.1 (44.8) mL/hr
- AUC(0-t) (human, 160 mg, AUC0-9, Single Dose (Cycle 1 Day 1)): 31800 ng·h/mL
- AUC(0-t) (human, 160 mg, AUC0-9, Steady State (Cycle 1 Day 17)): 45300 ng·h/mL
- AUC(0-inf) [9]: 102000 ng·h/mL
- Cmax [9]: 5340 ng/mL
- Cmax (human, 160 mg, Steady State (Cycle 1 Day 17)): 6870 ng/mL
- Vd/F [9]: 34.5 L
- half-life (human, 160 mg, t1/2, Single Dose (Cycle 1 Day 1)): 15.2 h
- half-life (human, Mean terminal half-life): ~13 h
- Tmax (human, Median Tmax): 1 to 2 h
- Tmax (human, BID 2.5 mg, N 4, read-out: Tmax, Steady State (Cycle 1 Day 17)): 0.54 h
- AUC0-9 (human, QD 120 mg, N 8, read-out: AUC0-9, Single Dose (Cycle 1 Day 1)): 21700 ng·h/mL
- Exposure (Cmax and AUC0-inf) versus dose: dose-proportional increase
